# According to PMC3914206:
# Assays:
# Format in all cases: binding
# Design in all cases: KINOMEscan: ABL1(F317L)-phosphorylated / KINOMEscan: ABL1(H396P)-nonphosphorylated / KINOMEscan: ABL1(H396P)-phosphorylated / KINOMEscan: ABL1(M351T)-phosphorylated / KINOMEscan: ABL1(T315I)-phosphorylated / KINOMEscan: ABL1-nonphosphorylated / KINOMEscan: ABL1-phosphorylated / KINOMEscan: ACVR2A / KINOMEscan: ACVR2B / KINOMEscan: ADCK3 / KINOMEscan: ADCK4 / KINOMEscan: AKT1 / KINOMEscan: AKT3 / KINOMEscan: ALK / KINOMEscan: ARK5 / KINOMEscan: AURKA / KINOMEscan: AURKC / KINOMEscan: BIKE / KINOMEscan: BMPR1A / KINOMEscan: BMPR1B / KINOMEscan: BMX / KINOMEscan: BRK / KINOMEscan: BRSK1 / KINOMEscan: BRSK2 / KINOMEscan: CAMK1 / KINOMEscan: CAMK1D / KINOMEscan: CAMK1G / KINOMEscan: CAMK2A / KINOMEscan: CAMK2B / KINOMEscan: AAK1 / KINOMEscan: CAMK2D / KINOMEscan: CAMK2G / KINOMEscan: ABL1(F317I)-nonphosphorylated / KINOMEscan: ABL1(F317I)-phosphorylated / KINOMEscan: ABL1(F317L)-nonphosphorylated: unit: % Ctrl
# Conditions in all cases: Compound Concentration 10 µM
# [1] = molecular target: T1, panel of 442 kinases (Homo sapiens, UniProt Q8TDC3)
# T1 construct: purchased KINOMEscan
# T1 sequence (Q8TDC3 1-778): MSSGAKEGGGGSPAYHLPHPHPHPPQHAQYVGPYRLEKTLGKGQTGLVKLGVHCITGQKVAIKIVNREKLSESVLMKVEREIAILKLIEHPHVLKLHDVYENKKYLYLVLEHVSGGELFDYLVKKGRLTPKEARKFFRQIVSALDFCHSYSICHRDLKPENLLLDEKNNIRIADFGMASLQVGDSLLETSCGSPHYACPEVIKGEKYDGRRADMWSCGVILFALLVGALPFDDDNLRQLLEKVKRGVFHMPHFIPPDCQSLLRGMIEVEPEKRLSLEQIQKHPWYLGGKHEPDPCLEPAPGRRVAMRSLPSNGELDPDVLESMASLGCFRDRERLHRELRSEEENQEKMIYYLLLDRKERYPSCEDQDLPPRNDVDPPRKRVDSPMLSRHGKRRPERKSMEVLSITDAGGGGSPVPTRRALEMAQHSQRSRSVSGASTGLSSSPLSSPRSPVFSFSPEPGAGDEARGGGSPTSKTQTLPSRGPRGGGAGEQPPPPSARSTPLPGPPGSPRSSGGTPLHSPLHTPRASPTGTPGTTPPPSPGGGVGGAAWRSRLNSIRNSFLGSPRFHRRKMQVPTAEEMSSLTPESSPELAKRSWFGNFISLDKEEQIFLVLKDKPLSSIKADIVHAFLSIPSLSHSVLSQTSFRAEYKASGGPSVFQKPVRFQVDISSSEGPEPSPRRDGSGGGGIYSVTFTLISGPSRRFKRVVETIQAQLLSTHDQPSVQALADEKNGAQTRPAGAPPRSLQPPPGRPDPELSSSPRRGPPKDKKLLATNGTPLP
# Excerpt: (§1) We assessed the selectivity of members of this scaffold using the KINOMEscan methodology across a near comprehensive panel of 442 kinases [[18,27]].
# [2] = molecular target: T2, panel of 442 kinases (Homo sapiens, UniProt Q96GD4)
# T2 construct: purchased KINOMEscan
# Excerpt: as §1
# [3] = molecular target: T3, panel of 442 kinases (Homo sapiens, UniProt Q9Y243)
# T3 construct: purchased KINOMEscan
# Excerpt: as §1
# T2 sequence (Q96GD4 whole entry): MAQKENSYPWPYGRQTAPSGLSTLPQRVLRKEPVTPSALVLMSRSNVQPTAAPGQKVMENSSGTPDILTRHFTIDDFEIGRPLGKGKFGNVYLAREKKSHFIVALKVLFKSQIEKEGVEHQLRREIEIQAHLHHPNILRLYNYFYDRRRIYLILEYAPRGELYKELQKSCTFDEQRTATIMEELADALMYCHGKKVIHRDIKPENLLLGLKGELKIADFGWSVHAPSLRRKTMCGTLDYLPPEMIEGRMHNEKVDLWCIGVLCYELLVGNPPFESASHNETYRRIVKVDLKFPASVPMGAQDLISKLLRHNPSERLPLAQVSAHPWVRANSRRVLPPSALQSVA
# T3 sequence (Q9Y243 whole entry): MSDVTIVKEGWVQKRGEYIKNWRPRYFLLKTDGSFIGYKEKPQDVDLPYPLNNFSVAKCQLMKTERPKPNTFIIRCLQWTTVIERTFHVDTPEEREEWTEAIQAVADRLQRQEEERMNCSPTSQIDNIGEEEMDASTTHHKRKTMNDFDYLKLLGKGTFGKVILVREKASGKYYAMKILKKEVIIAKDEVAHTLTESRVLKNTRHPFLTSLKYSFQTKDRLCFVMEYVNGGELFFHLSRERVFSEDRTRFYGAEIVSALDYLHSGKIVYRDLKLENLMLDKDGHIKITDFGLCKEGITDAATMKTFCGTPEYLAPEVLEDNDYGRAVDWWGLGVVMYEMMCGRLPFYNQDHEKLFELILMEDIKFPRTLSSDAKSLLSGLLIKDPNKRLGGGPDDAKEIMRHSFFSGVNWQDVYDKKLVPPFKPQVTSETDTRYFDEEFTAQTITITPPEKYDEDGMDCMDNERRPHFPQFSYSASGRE
Structure (SMILES),KINOMEscan: BRSK1 [1],KINOMEscan: AURKB [2],KINOMEscan: AKT3 [3]
COc1cc(C(=O)N2CCC(N3CCN(C)CC3)CC2)ccc1Nc1ncc2c(n1)N(C)c1ccccc1C(=O)N2C [15 (LRRK2-IN-1)],81,38,100
COc1cc(C(=O)N2CCC(N3CCN(C)CC3)CC2)ccc1Nc1ncc2c(n1)N1CCc3cccc(c31)C(=O)N2C [Compound 24],82,,
"COc1cc(C(=O)N2CCC(N3CCN(C)CC3)CC2)ccc1Nc1ncc2c(n1)N(C1CCCC1)c1ccccc1C(=O)N2C [Compound 25, 11-cyclopentyl-2-((2-methoxy-4-(4-(4-methylpiperazin-1-yl)piperidine-1-carbonyl)phenyl)amino)-5-methyl-5H-benzo[e]pyrimido[5,4-b][1,4]diazepin-6(11H)-one]",84,60,100
CCOc1cc(C(=O)N2CCC(N3CCN(C)CC3)CC2)ccc1Nc1ncc2c(n1)N(C1CCCC1)c1ccccc1C(=O)N2C [Compound 26],100,100,84
